Results taken from paper PMC11124525, “Pharmacokinetic–Pharmacodynamic Correlation Analysis of Rhodiola crenulata in Rats with Myocardial Ischemia” (Pharmaceuticals, 2024).
“Also recorded” adds a separate entry of the source. Where two headings read alike, the source gives them in different places.

Legend:
[1] = PK of five RC components in sham operation administration (SDG, normal) rats after oral RC extract, HPLC-QQQ-MS/MS, DAS; type: in vivo, SD rats; conditions: rat
Experimental: (§1) The drug concentration in plasma was calculated using the standard curve, and the mean blood concentration was plotted against the time to obtain the mean blood concentration–time curve (Figure 4).
(§2) The rat model of MI was made with Pit. The rats were divided into a sham operation group (SG), sham operation administration group (SDG), model group (MG), and model administration group (MDG) (n = 6 for each group). The MI model was prepared via an intraperitoneal injection (a single time) of Pit in the MG and MDG, with a dosage of 20 U/kg and a volume of 10 mL/kg. At the same time, the rats in the SG and SDG groups were given the same volume of saline in the same way.
(§3) RC extract (2 g/kg, equivalent to human clinical equivalent dose) was given to rats via oral administration in SDG and MDG, and the same volume of normal saline was orally administered to the SG and MG. Rats were fasted for 12 h before the experiment. Blood was collected from the fundus venous plexus at 0, 5, 10, 15, 30, 45 min, 1, 2, 4, 6, 8, 12, and 24 h after in gavage, placed in a centrifuge tube impregnated with heparin sodium, centrifuged at 3500 rpm for 15 min, and then the plasma was collected and divided into two parts. One part was used for biochemical index determination and the other part was used to determine the content of pharmaceutical ingredients in vivo. After the experiment, the rats were sacrificed, and the hearts were placed in paraformaldehyde for histopathological analysis.
(§4) The plasma sample of 100 μL was accurately absorbed, 50 μL internal standard solution (Nimodipine, 500 ng/mL) was added, then 300 μL acetonitrile precipitated protein was added, vortex for 10 min, placed under ultrasound for 3 min, centrifuged at 13,000 rpm for 10 min, and then the supernatant was transferred to another centrifuge tube. It was then concentrated until dry with a rotary evaporator. The residue was redissolved with 100 μL 50% acetonitrile, swirled for 1 min, placed under ultrasonic for 3 min, centrifuged at 13,000 rpm for 10 min, and the supernatant was taken for analysis.
(§5) A validated HPLC-QQQ-MS/MS method was used for the determination of drug-derived components in plasma samples at different time points. The accompanying standard curve was substituted to calculate the content of the compounds to be measured, and then the PK parameters were calculated using DAS software (version 3.2.8), and the blood concentration–time curve was plotted using GraphPad Prism (version 8.0.2). PK behavior was compared between the sham operation and model group, and PK models were established, respectively.

[2] = PK of five RC components in pituitrin-induced myocardial ischemia (MDG) rats after oral RC extract, HPLC-QQQ-MS/MS, DAS; type: in vivo, SD rats; conditions: for AUC(0-inf) / AUC(0-t) / CL/F / Cmax / MRT / MRT inf / Vd/F / half-life / Tmax: rat
Experimental: as §1, §2, §3, §4, §5

AST = experiment: PK-PD sigmoid-Emax model, PD index AST in MDG rats; type: in vivo, SD rats; parameters: unit not given beside the values
CK = experiment: PK-PD sigmoid-Emax model, PD index CK in MDG rats; type: in vivo, SD rats; parameters: Emax: unit not given beside the values
HBDH = experiment: PK-PD sigmoid-Emax model, PD index HBDH in MDG rats; type: in vivo, SD rats; parameters: unit not given beside the values
SOD = experiment: PK-PD sigmoid-Emax model, PD index SOD in MDG rats; type: in vivo, SD rats; parameters: Ke0: unit not given beside the values
[3] = Experimental: A series concentration mixed reference solution with different concentrations was added to 100 μL plasma, and was treated according to the method under Section 4.6 to obtain the matrix standard curve sample. Samples with concentrations of 400, 100, and 10 ng/mL, respectively, were taken as quality control (QC) samples of high, medium, and low concentrations (HQC, MQC, LQC). The method was validated, including linearity, inter-day/intra-day precision, repeatability, stability, extraction recovery, and matrix effect, according to FDA bioanalytical method validation guidelines.
[4] = myocardial infarction induced by isoproterenol; cited from earlier work
LDH = experiment: PK-PD sigmoid-Emax model, PD index LDH in MDG rats
Text: Subsequently, we incorporated the PK and PD data to conduct PK-PD modeling through DAS.
Therefore, PK-PD correlation analysis was used in this study, linking dynamic concentration–time processes and effect–time profile relationships [20, 21, 22]. […] The model adopted in this study is the S-Emax model. In the equation, γ means the shape factor in the formula, affecting the slope and determining the steepness of the curve. Emax can provide the maximum response intensity, and ED50 is for evaluating the safety of the drug, which is understood as the amount of the drug that causes 50% of the maximum response intensity.
Plasma creatine kinase (CK), hydroxybutyrate dehydrogenase (HBDH), lactate dehydrogenase (LDH), and superoxide dismutase (SOD) activity was determined using an automatic biochemical analyzer.
The activity of the CK, HBDH, LDH, and SOD of plasma samples collected at different time points was determined using an automatic biochemical analyzer for PD index evaluation. […] Two compartmental methods were used, employing the drug and statistics, which was supplied by the Chinese Pharmacological Society. Then, the efficacy indicators were fitted in the PK-PD model.

[5] = pathological conditions; cited from earlier work

SMILES: O=C(O)c1cc(O)c(O)c(O)c1 [Gallic Acid, gallic acid]
- AUC(0-inf) ([1]; SD, in vivo, po, 2 g/kg): 550 ± 169 ng·h/mL
- AUC(0-t) ([1]; SD, in vivo, po, 2 g/kg): 475 ± 112 ng·h/mL
- CL/F ([1]; SD, in vivo, po, 2 g/kg): 165 mL/min/kg
- Cmax ([1]; SD, in vivo, po, 2 g/kg): 103 ± 16.2 ng/mL
- MRT ([1]; SD, in vivo, po, 2 g/kg): 4.32 ± 1.26 h
- MRT inf ([1]; SD, in vivo, po, 2 g/kg): 8.92 ± 5.98 h
- Tmax ([1]; SD, in vivo, po, 2 g/kg): 0.92 ± 0.13 h
- Vd/F ([1]; SD, in vivo, po, 2 g/kg): 116 ± 83.1 L/kg
- half-life ([1]; SD, in vivo, po, 2 g/kg): 10.2 ± 8.73 h
- AUC(0-inf) ([2]; SD, in vivo, po, 2 g/kg): 664 ± 221 ng·h/mL
- AUC(0-t) ([2]; SD, in vivo, po, 2 g/kg): 531 ± 60.9 ng·h/mL
- CL/F ([2]; SD, in vivo, po, 2 g/kg): 136 mL/min/kg
- Cmax ([2]; SD, in vivo, po, 2 g/kg): 130 ± 19.9 ng/mL
- MRT ([2]; SD, in vivo, po, 2 g/kg): 5.53 ± 0.59 h
- MRT inf ([2]; SD, in vivo, po, 2 g/kg): 13.6 ± 10.6 h
- Vd/F ([2]; SD, in vivo, po, 2 g/kg): 134 ± 68.9 L/kg
- half-life ([2]; SD, in vivo, po, 2 g/kg): 13.8 ± 10.9 h
- Tmax ([2]; SD, in vivo, po, 2 g/kg, Tmax): 0.92 ± 0.13 h
- Tmax ([2]; SD, in vivo, po, 2 g/kg, Tmax (approximate)): ~1 h
- Emax (AST): 1375.057
- Ke0 (AST): 2.998
- Emax (CK): 2290.745
- Ke0 (CK): 1.909
- Emax (HBDH): 3540.625
- Ke0 (HBDH): 0.439
- Emax (SOD): 73.435
- Ke0 (SOD): 0.022
- Stability RE (%) ([3]; rat plasma, 4 °C, 48 h, spiked 10 ng/mL, n = 6): 100.2%
- Stability RE (%) ([3]; rat plasma, 4 °C, 48 h, spiked 50 ng/mL, n = 6): 103.3%
- Stability RE (%) ([3]; rat plasma, 4 °C, 48 h, spiked 400 ng/mL, n = 6): 99.11%
- Stability RE (%) ([3]; rat plasma, three freeze–thaw cycles, spiked 10 ng/mL, n = 6): 98.58%
- Stability RE (%) ([3]; rat plasma, three freeze–thaw cycles, spiked 50 ng/mL, n = 6): 105.6%
- Stability RE (%) ([3]; rat plasma, three freeze–thaw cycles, spiked 400 ng/mL, n = 6): 90.26%
- Stability RE (%) ([3]; rat plasma, −80 °C, 10 days, spiked 10 ng/mL, n = 6): 99.77%
- Stability RE (%) ([3]; rat plasma, −80 °C, 10 days, spiked 400 ng/mL, n = 6): 96.65%
- Stability in plasma samples (in words) ([3]; simulated sample storage, handling and analysis (48 h at 4 °C and 10 days in 3 freeze–thaw cycles)): stable
- CLZ/F in modeled rats vs normal rats [4]: significantly decreased
- T1/2 and MRT in modeled rats vs normal rats [4]: prolonged
- Emax (LDH): 580.413

SMILES: OCCc1ccc(O)cc1 [Tyrosol, tyrosol]
- AUC(0-t) ([1]; SDG rats, oral RC extract 2 g/kg, plasma, mean ± SD, n = 6, read-out: AUC(0−t)): 653 ± 63.2 ng·h/mL
- AUC(0-inf) ([1]; SDG rats, oral RC extract 2 g/kg, plasma, mean ± SD, n = 6, read-out: AUC(0−∞)): 729 ± 49.2 ng·h/mL
- CL/F ([1]; SDG rats, oral RC extract 2 g/kg, plasma, mean ± SD, n = 6, read-out: CLz/F (converted)): 115 mL/min/kg
- Cmax ([1]; SDG rats, oral RC extract 2 g/kg, plasma, mean ± SD, n = 6, read-out: Cmax): 132 ± 12.6 ng/mL
- MRT ([1]; SDG rats, oral RC extract 2 g/kg, plasma, mean ± SD, n = 6, read-out: MRT(0−)): 5.59 ± 0.5 h
- MRT inf ([1]; SDG rats, oral RC extract 2 g/kg, plasma, mean ± SD, n = 6, read-out: MRT(0−∞)): 9.86 ± 5.68 h
- Tmax ([1]; SDG rats, oral RC extract 2 g/kg, plasma, mean ± SD, n = 6, read-out: Tmax): 1.17 ± 0.41 h
- Vd/F ([1]; SDG rats, oral RC extract 2 g/kg, plasma, mean ± SD, n = 6, read-out: Vz/F): 97 ± 70.2 L/kg
- half-life ([1]; SDG rats, oral RC extract 2 g/kg, plasma, mean ± SD, n = 6, read-out: t1/2z (converted)): 10 ± 7.64 h
- Change of CLZ/F in MDG compared with SDG ([2]; MDG vs SDG rats, oral RC extract 2 g/kg): marked decreasing tendency; also recorded: decreased significantly
- Tmax ([2]; SD, plasma, po, 2 g/kg, MDG (myocardial ischemia) rats, oral RC extract 2 g/kg, plasma, mean ± SD, n = 6, read-out: Tmax): 0.96 ± 0.1 h
- Tmax ([2]; SD, plasma, po, 2 g/kg, according to the PK results, group not given, oral RC extract, read-out: Tmax (approximate)): ~1 h
- AUC(0-t) ([2]; MDG (myocardial ischemia) rats, oral RC extract 2 g/kg, plasma, mean ± SD, n = 6, read-out: AUC(0−t)): 837 ± 66.8 ng·h/mL
- AUC(0-inf) ([2]; MDG (myocardial ischemia) rats, oral RC extract 2 g/kg, plasma, mean ± SD, n = 6, read-out: AUC(0−∞)): 1100 ± 258 ng·h/mL
- CL/F ([2]; MDG (myocardial ischemia) rats, oral RC extract 2 g/kg, plasma, mean ± SD, n = 6, read-out: CLz/F (converted)): 79.2 mL/min/kg
- Cmax ([2]; MDG (myocardial ischemia) rats, oral RC extract 2 g/kg, plasma, mean ± SD, n = 6, read-out: Cmax): 143.4 ± 1.41 ng/mL
- MRT ([2]; MDG (myocardial ischemia) rats, oral RC extract 2 g/kg, plasma, mean ± SD, n = 6, read-out: MRT(0−)): 6.54 ± 0.91 h
- MRT inf ([2]; MDG (myocardial ischemia) rats, oral RC extract 2 g/kg, plasma, mean ± SD, n = 6, read-out: MRT(0−∞)): 16.8 ± 9.96 h
- Vd/F ([2]; MDG (myocardial ischemia) rats, oral RC extract 2 g/kg, plasma, mean ± SD, n = 6, read-out: Vz/F): 94.4 ± 44.4 L/kg
- half-life ([2]; MDG (myocardial ischemia) rats, oral RC extract 2 g/kg, plasma, mean ± SD, n = 6, read-out: t1/2z (converted)): 15.6 ± 0.79 h
- Emax (AST): 1213.835
- Ke0 (AST): 2.998
- Emax (CK): 2289.882
- Ke0 (CK): 2.998
- Emax (HBDH): 7149.416
- Ke0 (HBDH): 0.724
- Emax (SOD): 68.804
- Ke0 (SOD): 0.043
- Stability RE (%) ([3]; rat, 10 ng/mL): 94.31%
- Stability RE (%) ([3]; rat, 50 ng/mL): 96.93%
- Stability RE (%) ([3]; rat, 400 ng/mL): 97.75%
- Stability RE (%) ([3]; rat, 48 h, 10 ng/mL): 85.44%
- Stability RE (%) ([3]; rat, 48 h, 50 ng/mL): 90.28%
- Stability RE (%) ([3]; rat, 10 days, 10 ng/mL): 99.52%
- Stability RE (%) ([3]; rat, 10 days, 400 ng/mL): 89.70%
- Bioavailability under pathological conditions [5]: increased significantly
- Emax (LDH): 483.057
- Ke0 (LDH): 2.848
